Experimental data reported in ChEMBL document CHEMBL3612044, “Phosphate Chemical Probes Designed for Location Specific Inhibition of Intracellular Carbonic Anhydrases” (J Med Chem, 2015).

Target: Carbonic anhydrase 9 (Homo sapiens, UniProt Q16790)
Assay: Inhibition of human carbonic anhydrase-9 by stopped-flow CO2 hydration assay

| Ki | SMILES |
| --- | --- |
| 213 nM | NS(=O)(=O)[C@@H]1O[C@H](COP(=O)(O)O)[C@@H](O)[C@H](O)[C@H]1O |
| 248 nM | NS(=O)(=O)c1ccc(-c2cn([C@@H]3O[C@H](COP(=O)(O)O)[C@@H](O)[C@H](O)[C@H]3O)nn2)cc1 |
| 135 nM | CC(=O)O[C@@H]1[C@@H](OC(C)=O)[C@H](n2cc(-c3ccc(S(N)(=O)=O)cc3)nn2)O[C@H](COP(=O)(OCCSC(=O)C(C)(C)C)OCCSC(=O)C(C)(C)C)[C@H]1OC(C)=O |
| 154 nM | CC(=O)O[C@@H]1[C@@H](OC(C)=O)[C@H](S(N)(=O)=O)O[C@H](COP(=O)(OCCSC(=O)C(C)(C)C)OCCSC(=O)C(C)(C)C)[C@H]1OC(C)=O |

| SMILES | Ki |
| --- | --- |
| CC(=O)O[C@@H]1[C@@H](OC(C)=O)[C@H](n2cc(-c3ccc(S(N)(=O)=O)cc3)nn2)O[C@H](COP2(=O)OCc3ccccc3O2)[C@H]1OC(C)=O (stereo not given in full) | 84.3 nM |
